From patent publication US20250064941A1, “SIGLEC LIGANDS, CONJUGATES, AND METHODS OF USE THEREOF” (Osprey Biopharmaceuticals, Inc., priority 2023, published 2025)

How the values were obtained:
[1] = molecular target: T1, mouse Siglec-2-Fc-Avi (CD22) (Mus musculus, UniProt P35329); experiment: SPR binding affinity to mouse CD22; settings: steady-state analysis
T1 construct: made in house
T1 sequence (P35329 22-708 limits assumed): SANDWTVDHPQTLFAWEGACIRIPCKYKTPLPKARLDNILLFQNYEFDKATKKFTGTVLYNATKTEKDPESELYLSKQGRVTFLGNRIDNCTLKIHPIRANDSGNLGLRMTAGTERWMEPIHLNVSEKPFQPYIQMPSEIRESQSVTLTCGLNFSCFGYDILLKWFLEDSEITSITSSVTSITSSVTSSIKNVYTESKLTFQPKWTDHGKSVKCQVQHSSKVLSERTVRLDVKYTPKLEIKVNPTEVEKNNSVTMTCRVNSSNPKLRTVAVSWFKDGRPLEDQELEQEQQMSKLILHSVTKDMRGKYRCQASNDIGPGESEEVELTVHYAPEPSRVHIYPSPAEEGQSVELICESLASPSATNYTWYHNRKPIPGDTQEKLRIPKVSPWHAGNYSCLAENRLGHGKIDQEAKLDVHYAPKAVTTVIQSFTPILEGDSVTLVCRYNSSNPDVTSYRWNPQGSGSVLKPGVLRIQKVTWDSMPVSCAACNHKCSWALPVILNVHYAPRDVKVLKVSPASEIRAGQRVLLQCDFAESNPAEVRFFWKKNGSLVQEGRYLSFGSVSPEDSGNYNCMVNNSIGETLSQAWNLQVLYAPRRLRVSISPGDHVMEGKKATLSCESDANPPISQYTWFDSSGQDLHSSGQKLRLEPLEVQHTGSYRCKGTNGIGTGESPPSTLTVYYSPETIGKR
Method in brief: (§1)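 Using a Biacore 8K, compounds were tested against biotinylated CD22 captured after sialidase treatment. The running buffer held 1% DMSO, corrected with a 0.5–2% DMSO series. Affinity was derived by steady-state analysis.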

[2] = molecular target: T2, human Siglec-2/CD22 protein (Homo sapiens, UniProt P20273); experiment: SPR binding affinity to human CD22; settings: steady-state analysis
T2 construct: purchased Acro Biosystems SI2-H82E3
T2 sequence (P20273 20-847): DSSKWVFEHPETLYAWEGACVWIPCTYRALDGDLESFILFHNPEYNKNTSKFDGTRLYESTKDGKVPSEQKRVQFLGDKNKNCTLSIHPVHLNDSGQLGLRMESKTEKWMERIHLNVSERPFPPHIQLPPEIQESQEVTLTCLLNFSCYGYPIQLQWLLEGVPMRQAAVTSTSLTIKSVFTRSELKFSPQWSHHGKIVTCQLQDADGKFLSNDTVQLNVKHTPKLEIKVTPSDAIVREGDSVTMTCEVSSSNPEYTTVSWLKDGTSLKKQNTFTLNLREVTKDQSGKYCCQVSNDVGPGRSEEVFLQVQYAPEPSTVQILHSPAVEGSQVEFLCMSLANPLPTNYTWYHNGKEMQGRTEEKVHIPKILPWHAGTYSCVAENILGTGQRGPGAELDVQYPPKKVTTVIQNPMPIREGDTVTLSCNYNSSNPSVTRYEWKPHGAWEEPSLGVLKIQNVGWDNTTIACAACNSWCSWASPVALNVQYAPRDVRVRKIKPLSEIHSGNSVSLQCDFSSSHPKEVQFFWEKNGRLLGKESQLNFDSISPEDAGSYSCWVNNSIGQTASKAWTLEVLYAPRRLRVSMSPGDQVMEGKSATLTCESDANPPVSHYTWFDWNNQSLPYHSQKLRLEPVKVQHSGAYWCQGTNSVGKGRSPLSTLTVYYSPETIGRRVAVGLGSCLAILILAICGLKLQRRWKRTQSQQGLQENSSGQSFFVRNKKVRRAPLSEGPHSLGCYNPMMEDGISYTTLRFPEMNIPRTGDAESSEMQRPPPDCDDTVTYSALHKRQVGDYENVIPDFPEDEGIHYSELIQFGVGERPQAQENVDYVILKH
Method in brief: as §1

cynomolgus Siglec-2/CD22 = cynomolgus Siglec-2/CD22 (Macaca fascicularis, UniProt A0A2K5WCZ6); experiment: biochemical; assay type: binding; settings: SPR, steady-state analysis; read-out: Affinity cyno CD22
Chain of cynomolgus Siglec-2/CD22 (A0A2K5WCZ6 entry or part of it): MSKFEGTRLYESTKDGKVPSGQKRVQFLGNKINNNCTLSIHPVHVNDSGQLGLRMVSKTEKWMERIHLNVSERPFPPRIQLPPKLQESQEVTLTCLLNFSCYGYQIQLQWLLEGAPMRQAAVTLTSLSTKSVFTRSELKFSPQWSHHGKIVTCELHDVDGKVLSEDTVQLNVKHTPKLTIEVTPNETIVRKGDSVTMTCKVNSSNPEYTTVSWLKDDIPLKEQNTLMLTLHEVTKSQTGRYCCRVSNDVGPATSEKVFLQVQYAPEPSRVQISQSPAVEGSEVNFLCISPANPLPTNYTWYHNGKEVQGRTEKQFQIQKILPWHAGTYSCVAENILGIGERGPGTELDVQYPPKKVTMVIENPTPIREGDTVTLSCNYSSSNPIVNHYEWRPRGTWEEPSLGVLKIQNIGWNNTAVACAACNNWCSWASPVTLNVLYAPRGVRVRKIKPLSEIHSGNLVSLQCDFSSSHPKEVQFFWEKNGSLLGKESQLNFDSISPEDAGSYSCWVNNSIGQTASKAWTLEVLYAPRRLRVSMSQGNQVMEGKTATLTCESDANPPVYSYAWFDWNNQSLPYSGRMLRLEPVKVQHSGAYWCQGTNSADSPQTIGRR
Method in brief: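 Compound binding measured by steady-state SPR analysis, 120 s dissociation, in HEPES-NaCl-Tween buffer pH 7.5 containing 1% DMSO, DMSO solvent-corrected. Surface: cyno CD22, sialic acids first stripped by SialoExo for 4 h at 37° C., then amine-coupled onto CM5.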

| Compound | Kd [1] [nM] | Kd [2] [nM] | Kd (cynomolgus Siglec-2/CD22) [nM] |
| --- | --- | --- | --- |
| C#CCOc1ccc(CO[C@]2(C(=O)O)C[C@H](O)[C@@H](NC(=O)CO)[C@H]([C@H](O)[C@H](O)CNC(=O)Cc3cccc(O)c3)O2)cc1 [Compound 150, (2R,4S,5R,6R)-6-((1R,2R)-1,2-dihydroxy-3-(2-(3-hydroxyphenyl)acetamido)propyl)-4-hydroxy-5-(2-hydroxyacetamido)-2-((4-(prop-2-yn-1-yloxy)benzyl)oxy)tetrahydro-2H-pyran-2-carboxylic acid] | 1000 to 10000 | < 1000 | 1000 to 10000 |
| C#CCOCCOCCO[C@]1(C(=O)O)C[C@H](O)[C@@H](NC(=O)CO)[C@H]([C@H](O)[C@H](O)CNC(=O)Cc2ccccc2O)O1 [Compound 151, (2R,4S,5R,6R)-6-((1R,2R)-1,2-dihydroxy-3-(2-(2-hydroxyphenyl)acetamido)propyl)-4-hydroxy-5-(2-hydroxyacetamido)-2-(2-(2-(prop-2-yn-1-yloxy)ethoxy)ethoxy)tetrahydro-2H-pyran-2-carboxylic acid] | 1000 to 10000 | 1000 to 10000 | > 10000 |
| C#CCOCCOCCO[C@]1(C(=O)O)C[C@H](O)[C@@H](NC(=O)CO)[C@H]([C@H](O)[C@H](O)CNC(=O)Cc2cccc(O)c2)O1 [Compound 152, (2R,4S,5R,6R)-6-((1R,2R)-1,2-dihydroxy-3-(2-(3-hydroxyphenyl)acetamido)propyl)-4-hydroxy-5-(2-hydroxyacetamido)-2-(2-(2-(prop-2-yn-1-yloxy)ethoxy)ethoxy)tetrahydro-2H-pyran-2-carboxylic acid] | < 1000 | 1000 to 10000 | 1000 to 10000 |
| C#CCOCCOCCO[C@]1(C(=O)O)C[C@H](O)[C@@H](NC(=O)CO)[C@H]([C@H](O)[C@H](O)CNC(=O)Cc2ccc(O)cc2)O1 [Compound 153, (2R,4S,5R,6R)-6-((1R,2R)-1,2-dihydroxy-3-(2-(4-hydroxyphenyl)acetamido)propyl)-4-hydroxy-5-(2-hydroxyacetamido)-2-(2-(2-(prop-2-yn-1-yloxy)ethoxy)ethoxy)tetrahydro-2H-pyran-2-carboxylic acid] | < 1000 | 1000 to 10000 | 1000 to 10000 |
| O=C(O)CCOCCOCCOCCOCCNc1c(NCCCCCCO[C@]2(C(=O)O)C[C@H](O)[C@@H](NC(=O)CO)[C@H]([C@H](O)[C@H](O)CNC(=O)Cc3ccc(Cl)cc3)O2)c(=O)c1=O [Compound 154, (2R,4S,5R,6R)-2-((6-((2-((14-carboxy-3,6,9,12-tetraoxa-tetradecyl)amino)-3,4-dioxocyclobut-1-en-1-yl)amino)hexyl)oxy)-6-((1R,2R)-3-(2-(4-chlorophenyl)acetamido)-1,2-dihydroxypropyl)-4-hydroxy-5-(2-hydroxyacetamido) tetrahydro-2H-pyran-2-carboxylic acid] | < 1000 | < 1000 | < 1000 |
| C#CCOCCCCCCO[C@]1(C(=O)O)C[C@H](O)[C@@H](NC(=O)CO)[C@H]([C@H](O)[C@H](O)CNC(=O)Cc2cccc(OC(F)(F)F)c2)O1 [Compound 155, (2R,4S,5R,6R)-6-((1R,2R)-1,2-dihydroxy-3-(2-(3-(trifluoromethoxy)phenyl)acetamido)propyl)-4-hydroxy-5-(2-hydroxyacetamido)-2-((6-(prop-2-yn-1-yloxy)hexyl)oxy)tetrahydro-2H-pyran-2-carboxylic acid] | 1000 to 10000 | < 1000 | < 1000 |
| C#CCOCCCCCCO[C@]1(C(=O)O)C[C@H](O)[C@@H](NC(=O)CO)[C@H]([C@H](O)[C@H](O)CNC(=O)Cc2ccc(OC(F)(F)F)cc2)O1 [Compound 156, (2R,4S,5R,6R)-6-((1R,2R)-1,2-dihydroxy-3-(2-(4-(trifluoromethoxy)phenyl)acetamido)propyl)-4-hydroxy-5-(2-hydroxyacetamido)-2-((6-(prop-2-yn-1-yloxy)hexyl)oxy)tetrahydro-2H-pyran-2-carboxylic acid] | 1000 to 10000 | < 1000 | < 1000 |
| C#CCOCCCCCCO[C@]1(C(=O)O)C[C@H](O)[C@@H](NC(=O)CO)[C@H]([C@H](O)[C@H](O)CNC(=O)Cc2ccc(C(F)F)cc2)O1 [Compound 157, (2R,4S,5R,6R)-6-((1R,2R)-3-(2-(4-(difluoromethyl)phenyl)acetamido)-1,2-dihydroxypropyl)-4-hydroxy-5-(2-hydroxyacetamido)-2-((6-(prop-2-yn-1-yloxy)hexyl)oxy)tetrahydro-2H-pyran-2-carboxylic acid] | < 1000 | < 1000 | < 1000 |
| C#CCOCCCCCCO[C@]1(C(=O)O)C[C@H](O)[C@@H](NC(=O)CO)[C@H]([C@H](O)[C@H](O)CNC(=O)Cc2ccc(C(F)(F)F)cc2)O1 [Compound 158, (2R,4S,5R,6R)-6-((1R,2R)-1,2-dihydroxy-3-(2-(4-(trifluoromethyl)phenyl)acetamido)propyl)-4-hydroxy-5-(2-hydroxyacetamido)-2-((6-(prop-2-yn-1-yloxy)hexyl)oxy)tetrahydro-2H-pyran-2-carboxylic acid] | 1000 to 10000 | < 1000 | 1000 to 10000 |
| C#CCOCCCCCCO[C@]1(C(=O)O)C[C@H](O)[C@@H](NC(=O)CO)[C@H]([C@H](O)[C@H](O)CNC(=O)Cc2ccc(C(C)(C)C)cc2)O1 [Compound 160, (2R,4S,5R,6R)-6-((1R,2R)-3-(2-(4-(tert-butyl)phenyl)acetamido)-1,2-dihydroxypropyl)-4-hydroxy-5-(2-hydroxyacetamido)-2-((6-(prop-2-yn-1-yloxy)hexyl)oxy)tetrahydro-2H-pyran-2-carboxylic acid] | 1000 to 10000 | < 1000 | < 1000 |
| C#CCOCCCCCCO[C@]1(C(=O)O)C[C@H](O)[C@@H](NC(=O)CO)[C@H]([C@H](O)[C@H](O)CNC(=O)Cc2ccc(C3CC3)cc2)O1 [Compound 161, (2R,4S,5R,6R)-6-((1R,2R)-3-(2-(4-cyclopropylphenyl)acetamido)-1,2-dihydroxypropyl)-4-hydroxy-5-(2-hydroxyacetamido)-2-((6-(prop-2-yn-1-yloxy)hexyl)oxy)tetrahydro-2H-pyran-2-carboxylic acid] | < 1000 | < 1000 | < 1000 |
| C#CCOCCCCCCO[C@]1(C(=O)O)C[C@H](O)[C@@H](NC(=O)CO)[C@H]([C@H](O)[C@H](O)CNC(=O)Cc2ccc(C#N)cc2)O1 [Compound 162, (2R,4S,5R,6R)-6-((1R,2R)-3-(2-(4-cyanophenyl)acetamido)-1,2-dihydroxypropyl)-4-hydroxy-5-(2-hydroxyacetamido)-2-((6-(prop-2-yn-1-yloxy)hexyl)oxy)tetrahydro-2H-pyran-2-carboxylic acid] | 1000 to 10000 | 1000 to 10000 | < 1000 |
| C#CCCOc1ccc(CO[C@]2(C(=O)O)C[C@H](O)[C@@H](NC(=O)CO)[C@H]([C@H](O)[C@H](O)CNC(=O)Cc3ccccc3NC(C)=O)O2)cc1 [Compound 163, (2R,4S,5R,6R)-6-((1R,2R)-3-(2-(2-acetamidophenyl)acetamido)-1,2-dihydroxypropyl)-2-((4-(but-3-yn-1-yloxy)benzyl)oxy)-4-hydroxy-5-(2-hydroxyacetamido)tetrahydro-2H-pyran-2-carboxylic acid] | 1000 to 10000 | 1000 to 10000 | 1000 to 10000 |
